System: lung inflammation mice model
Experiment: LPS lung inflammation mice model, inflammatory factor mRNA in lung by real-time PCR
Format: in vivo
Settings: intranasal, peptide alone without LPS

`N=C(N)NCCC[C@H](NC(=O)[C@H](CCCNC(=N)N)NC(=O)[C@H](CCCNC(=N)N)NC(=O)[C@H](CCC(N)=O)NC(=O)[C@H](CCCNC(=N)N)NC(=O)[C@H](CCCNC(=N)N)NC(=O)[C@H](CCCCN)NC(=O)[C@H](CCCCN)NC(=O)[C@H](CCCNC(=N)N)NC(=O)CNC(=O)[C@@H](N)Cc1ccc(O)cc1)C(=O)O` [TAT] was tested, and the “inflammation in the lungs of mice treated with peptide alone (inflammatory factor mRNA)” value was “do not cause inflammation”.

From patent US20210401929A1 (Northeast Normal University, priority 2020, published 2021)
